Assays:
[1] = tested on: phosphorylation of ERK, a downstream signal factor of TT cells; experiment: ERK phosphorylation in TT cells (Western Blot); type: cell-based, human; conditions: for inhibition of the phosphorylation level of ERK in TT cells, overall: 3.7-300 nM, 2 hours
Description: In this experiment, the inhibitory effect of compounds on the phosphorylation level of ERK, a downstream signaling factor in TT cells, was measured by Western Blot method. When TT cells were cultured to the appropriate fusion degree, the cells were collected and adjusted to a suitable cell concentration using complete medium, the cell suspension was spread in a 24-well plate, 1 mL per well, and placed in a 37° C., 5% CO2 incubator overnight, and compound dilutions of different concentrations (3.7 nM, 11.1 nM, 33.3 nM, 100 nM, 300 nM) were added at 37° C. and acted for 2 hours; the cell supernatant was aspirated, washed one time with PBS, and the proteins were collected with lysate; after protein denaturation, Western blot experiments were performed: performing protein electrophoresis at 120V for approximately 75 minutes, followed by 45 minutes of transfer to PVDF membranes at 10V with a semi-dry transfer instrument, enclosing at 5% BSA for 1 hour at room temperature, and then PVDF membranes were cut into strips of appropriate size and incubated with prepared antibody dilutions overnight at 4° C. and washed 6 times with TBST, followed by imaging with goat anti-mouse secondary antibody and sheep anti-rabbit secondary antibody for 1 hour at room temperature, and the membrane was washed 6 times with TBST for imaging in the Biorad ChemiDoc™ MP Imaging System.
The inhibitory effect of compounds on ERK phosphorylation levels in TT cells at different concentrations was determined by detecting protein bands.

[2] = Balb/C mouse pharmacokinetics, oral; type: in vivo; conditions: Balb/C mice, p.o., 5 mg/kg, plasma
Description: The pharmacokinetic behavior of the following compound embodiments, administered orally at a dose of 5 mg/kg in plasma in mice, was studied using Balb/C mice as test animals.
Balb/C Mouse 6/embodiment, male, Shanghai Jiesijie Laboratory Animal Co., Ltd, Animal Production License No. (SCXK (Shanghai) 2013-0006 N0.311620400001794).
Balb/C mice, males; p.o. after overnight fasting, respectively, at a dose of 5 mg/kg, administered in a volume of 10 mL/kg.
0.5% CMC-Na(1% Tween80) was dissolved by ultrasound, and prepared into clear solution or uniform suspension.
Before and after administration, 0.1 mL of blood was collected from mice at 0, 0.5, 1, 2, 4, 6, 8 and 24 hours by orbital collection, placed in EDTA-K2 tubes, centrifuged at 6000 rpm at 4° C. for 6 min to separate plasma, and stored at −80° C.
40 μL of plasma sample was precipitated by adding 160 μL of acetonitrile, mixed and centrifuged at 3500×g for 5-20 min.
100 μL of the supernatant solution after treatment was taken to analyze the concentration of the test compound by LC/MS/MS.
The main pharmacokinetic parameters were calculated using WinNonlin 6.1 and the results of the mouse pharmacokinetic experiments were shown in Table 8 below.

KDR kinase = target: T1, KDR kinase (Homo sapiens, UniProt P35968); experiment: HTRF kinase assay, KDR; type: biochemical; conditions: for IC50: HTRF, ATP at Km; for Ratio (KDR/RET): KDR IC50 / RET IC50
T1 construct: purchased Carna 08-191
T1 sequence (P35968 20-1356): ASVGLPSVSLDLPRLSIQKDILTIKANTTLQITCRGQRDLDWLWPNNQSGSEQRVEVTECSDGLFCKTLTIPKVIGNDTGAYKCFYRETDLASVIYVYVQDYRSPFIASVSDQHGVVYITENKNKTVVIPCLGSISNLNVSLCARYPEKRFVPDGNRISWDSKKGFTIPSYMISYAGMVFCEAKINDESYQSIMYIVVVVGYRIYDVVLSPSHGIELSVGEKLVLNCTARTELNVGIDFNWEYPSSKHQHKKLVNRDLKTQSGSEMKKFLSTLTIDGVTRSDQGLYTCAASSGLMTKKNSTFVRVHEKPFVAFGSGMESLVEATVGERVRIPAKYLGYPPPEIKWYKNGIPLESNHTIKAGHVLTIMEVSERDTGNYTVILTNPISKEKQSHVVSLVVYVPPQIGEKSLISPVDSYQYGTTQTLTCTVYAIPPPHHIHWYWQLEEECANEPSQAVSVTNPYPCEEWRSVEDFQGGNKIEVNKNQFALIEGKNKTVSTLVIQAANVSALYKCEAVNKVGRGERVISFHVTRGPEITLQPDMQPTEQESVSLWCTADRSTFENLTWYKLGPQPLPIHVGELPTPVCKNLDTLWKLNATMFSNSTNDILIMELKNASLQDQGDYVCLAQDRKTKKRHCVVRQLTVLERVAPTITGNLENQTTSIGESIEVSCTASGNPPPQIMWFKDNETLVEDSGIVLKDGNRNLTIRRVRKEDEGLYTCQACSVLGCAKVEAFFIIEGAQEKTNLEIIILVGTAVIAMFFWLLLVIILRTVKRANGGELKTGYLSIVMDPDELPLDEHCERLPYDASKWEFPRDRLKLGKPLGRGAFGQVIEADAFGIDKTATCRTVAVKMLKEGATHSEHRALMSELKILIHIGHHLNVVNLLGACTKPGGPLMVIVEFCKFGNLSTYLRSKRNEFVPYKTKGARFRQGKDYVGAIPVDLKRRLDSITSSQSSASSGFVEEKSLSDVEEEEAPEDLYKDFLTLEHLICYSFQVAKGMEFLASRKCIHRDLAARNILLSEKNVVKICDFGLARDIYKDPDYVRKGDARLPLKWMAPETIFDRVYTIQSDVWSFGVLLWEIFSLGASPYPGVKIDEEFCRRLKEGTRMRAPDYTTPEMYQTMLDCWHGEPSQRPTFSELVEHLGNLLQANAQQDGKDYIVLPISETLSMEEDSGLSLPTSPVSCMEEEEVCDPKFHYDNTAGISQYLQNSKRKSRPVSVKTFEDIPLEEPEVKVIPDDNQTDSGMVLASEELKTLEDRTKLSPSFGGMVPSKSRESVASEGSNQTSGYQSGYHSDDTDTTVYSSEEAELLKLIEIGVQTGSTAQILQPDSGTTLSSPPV
Text: • KDR kinase was purchased from Carna Company, and the article number was 08-191; • HTRF KinEASE-TK kit was purchased from Cisbio Company, and the article number was 62TK0PEC; • ATP was purchased from Thermofisher Company, and the article number was PV3227; • 384-well plate was purchased from PerkinElmer Company, and the article number was 6007290.
In this experiment, the homogeneous time-resolved fluorescence (HTRF) method was used for the detection of compounds on KDR kinase activity.

RET = target: T2, RET (Homo sapiens, UniProt P07949); experiment: HTRF kinase assay, RET wild-type; type: biochemical; conditions: ATP at Km
T2 construct: purchased Carna 08-159
T2 sequence (P07949 29-1114): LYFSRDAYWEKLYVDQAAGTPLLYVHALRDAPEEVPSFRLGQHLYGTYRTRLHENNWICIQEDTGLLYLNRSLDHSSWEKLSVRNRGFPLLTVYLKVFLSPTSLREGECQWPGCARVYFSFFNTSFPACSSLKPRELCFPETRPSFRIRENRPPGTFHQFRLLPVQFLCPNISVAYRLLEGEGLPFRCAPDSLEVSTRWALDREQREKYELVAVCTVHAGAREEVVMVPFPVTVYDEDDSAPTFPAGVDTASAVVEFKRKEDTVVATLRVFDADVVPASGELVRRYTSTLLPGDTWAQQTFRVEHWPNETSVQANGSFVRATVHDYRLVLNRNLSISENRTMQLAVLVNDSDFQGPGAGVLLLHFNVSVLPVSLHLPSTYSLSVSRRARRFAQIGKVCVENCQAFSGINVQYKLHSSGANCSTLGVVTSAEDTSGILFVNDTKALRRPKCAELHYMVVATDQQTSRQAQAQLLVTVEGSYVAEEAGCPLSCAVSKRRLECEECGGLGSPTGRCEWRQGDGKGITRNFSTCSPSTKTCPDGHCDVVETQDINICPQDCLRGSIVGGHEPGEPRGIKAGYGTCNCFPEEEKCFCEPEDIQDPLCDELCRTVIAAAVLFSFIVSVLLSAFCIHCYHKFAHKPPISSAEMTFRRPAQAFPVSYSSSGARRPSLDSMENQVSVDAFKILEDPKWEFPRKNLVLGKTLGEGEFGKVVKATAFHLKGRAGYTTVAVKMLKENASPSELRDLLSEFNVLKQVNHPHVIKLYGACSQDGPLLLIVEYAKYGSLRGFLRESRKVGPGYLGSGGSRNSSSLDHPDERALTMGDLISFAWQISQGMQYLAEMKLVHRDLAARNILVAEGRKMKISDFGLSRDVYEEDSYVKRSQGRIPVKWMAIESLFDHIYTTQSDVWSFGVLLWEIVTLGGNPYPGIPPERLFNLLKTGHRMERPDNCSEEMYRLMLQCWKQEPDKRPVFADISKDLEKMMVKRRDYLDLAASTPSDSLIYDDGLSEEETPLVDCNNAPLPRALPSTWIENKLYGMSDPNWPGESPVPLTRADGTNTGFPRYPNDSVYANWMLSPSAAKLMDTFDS
Text: • RET enzyme was purchased from Carna Company, and the article number was 08-159; • RET M918T enzyme was purchased from Carna Company, and the article number was 08-508; • KIF5B-RET was purchased from SignalChem Company, the article number was R02-19FG-05; • CCDC6-RET was purchased from SignalChem Company, the article number was R02-19BG-05; • RET V804M enzyme was purchased from Thermofisher Company, and the article number was PV6223; • RET V804L enzyme was purchased from Thermofisher Company, and the article number was PV4397; • HTRF KinEASE-TK kit was purchased from Cisbio Company, and the article number was 62TK0PEC; • ATP was purchased from Thermofisher Company, and the article number was PV3227; • 384-well plate was purchased from PerkinElmer Company, and the article number was 6007290.
In this experiment, the homogeneous time-resolved fluorescence (HTRF) method was used for the detection of compounds on RET kinase activity.

[3] = tested on: TT cells (MTC, RET C634W); experiment: TT cell proliferation (CellTiter-Glo); type: cell-based, human
Description: When TT cells were cultured to the appropriate fusion level, TT cells were collected, and the cells were adjusted to the appropriate cell concentration using complete medium, and the cell suspension was spread in a 96-well plate, 90 µL per well, and placed in a 37° C., 5% CO2 incubator overnight; and compound solutions of different concentrations were prepared using DMSO and culture medium; and a solvent control was set, the compound solution was added to a 96-well plate, 10 µL per well, at 37° C. in a 5% CO2 incubator for 72 hours; CellTiter-Glo solution was added thereto and the mixture was mixed well by shaking, incubated for 10 min in the dark, and read by BioTek Synergy H1 microplate reader.
The luminescence signal values were used to calculate the inhibition rate, the concentration and the inhibition rate were fitted to a nonlinear regression curve using Graphpad Prism software.

TT xenograft tumor = experiment: Subcutaneous xenograft tumor model of human thyroid cancer cell TT; type: in vivo, BALB/c nude mice; conditions: for Tumor inhibition rate TGI d 22 / Tumor volume (mm^3, mean ± SEM) d 22: oral BID 21 days; for Tumor volume (mm^3, mean ± SEM) d 0: oral BID
Description: TT cells were cultured in vitro in a monolayer under the following conditions: F-12K medium with 20% heat-inactivated fetal bovine serum and 1% penicillin-streptomycin double antibodies at 37° C. and 5% CO2. Trypsin-EDTA was used twice a week digestion for digestion treatment passaging. When cells were in an exponential growth period, cells were collected, counted and inoculated.
TT cells were collected when they were full in a logarithmic growth period, ensuring over 90% of vitality. 0.2 mL cell suspension containing about 1×10^7 of TT cells (cells suspended in basic F-12K medium and added with 50% Matrigel) was subcutaneously inoculated into the right back tumor of each mouse […].
• 1. The day of grouping was day 0 (DO). The interval of BID administration was 6-8 h/18-16 h. The first dose was given in the afternoon of day DO and the last dose was given in the morning of day D21. • 2. Dosing volume: […] according to the body weight of nude mice.
Animal grouping: Before administration, the animals were weighed and the tumor volume was measured. The mice were randomly grouped according to tumor volume (randomized grouping design) with 5 animals per group.
Experimental index: The diameter of tumor was measured by vernier caliper twice a week. The tumor volume was calculated by the formula: V=a×b^2/2, a and b denote the long and short diameter of the tumor, respectively. The tumor suppressive efficacy of the compounds was evaluated by TGI (%). TGI (%)=(1−(TVTreatment/Dx−TVTreatment/D1)/(TVControl/Dx−TVControl/D1))×[…].
T test was used for comparison between two groups. One-way ANOVA was used for comparison among three or more groups. If there were significant differences in F values, multiple comparisons should be made after ANOVA analysis. GraphPadPrism 5.0 was used for all data analysis.

Row | Compound | IC50 (KDR kinase) | Ratio (KDR/RET) (KDR kinase) | IC50 (RET) | further results
1 | C#C[C@@](C)(O)COc1cc(-c2ccc(N3CC4CC(C3)N4Cc3ccc(OC)nc3)nc2)c2c(C#N)cnn2c1 [Embodiment 152, 6-(((R)-2-hydroxy-2-methylbut-3-yn-1-yl)oxy)-4-(6-(6-((6-methoxypyridin-3-yl)methyl)-3,6-diazabicyclo[3.1.1]heptan-3-yl)pyridin-3-yl)pyrazolo[1,5-a]pyridine-3-carbonitrile] | – | – | – | inhibition of the phosphorylation level of ERK in TT cells, overall [1]: significantly inhibit
2 | COc1ccc(CN2C3CC2CN(c2ccc(-c4cc(OCC(C)(C)C#N)cn5ncc(C#N)c45)cn2)C3)cn1 [Embodiment 34, 6-(2-Cyano-2-methylpropoxy)-4-(6-(6-((6-methoxypyridin-3-yl)methyl)-3,6-diazabicyclo[3.1.1]heptan-3-yl)pyridin-3-yl)pyrazolo[1,5-a]pyridine-3-carbonitrile] | – | – | – | Half-life t1/2 [2]: 4.2 h
3 | COc1ccc(CN2C3CC2CN(c2ccc(-c4cc(/C=C/C(C)(C)O)cn5ncc(C#N)c45)cn2)C3)cn1 [Embodiment 127] | 6.5 nM | 25 | 0.26 nM | IC50 ([3]; Homo sapiens, TT, 72 h): 5.87 nM
4 | 6-((1-Imino-1-hydroxy-1l6-thietan-3-yl)methoxy)-4-(6-(6-((6-methoxypyridin-3-yl)methyl)-3,6-diazabicyclo[3.1.1]heptan-3-yl)pyridin-3-yl)pyrazolo[1,5-a]pyridine-3-carbonitrile [Embodiment 85] | 69 nM | 55 | 1.3 nM | –
5 | COc1ccc(CN2C3CC2CN(c2ccc(-c4cc(N5CC(C)(C#N)C5)cn5ncc(C#N)c45)cn2)C3)cn1 [Embodiment 168, 6-(3-Cyano-3-methylazetidin-1-yl)-4-(6-(6-((6-methoxypyridin-3-yl)methyl)-3,6-diazabicyclo[3.1.1]heptan-3-yl)pyridin-3-yl)pyrazolo[1,5-a]pyridine-3-carbonitrile] | – | – | – | Tumor inhibition rate TGI d 22 (TT xenograft tumor; 10 mg/kg): 129.77%; Tumor volume (mm^3, mean ± SEM) d 22 (TT xenograft tumor; 10 mg/kg): 144.14 ± 8.95 mm^3; Tumor volume (mm^3, mean ± SEM) d 0 (TT xenograft tumor; 10 mg/kg): 205.23 ± 16.57 mm^3
6 | COc1ccc(OC2CCN(c3ccc(-c4cc(C#CC(C)(C)O)cn5ncc(C#N)c45)cn3)CC2)cn1 [Embodiment 32, 6-(3-Hydroxy-3-methylbut-1-yn-1-yl)-4-(6-(4-((6-methoxypyridin-3-yl)oxo)piperidin-1-yl)pyridin-3-yl)pyrazolo[1,5-a]pyridine-3-carbonitrile] | 1.6 nM | 1.3 | 1.22 nM | –
7 | COc1ncc(CN2C3CC2CN(c2ccc(-c4cc(C#CC(C)(C)O)cn5ncc(C#N)c45)cn2)C3)cc1F [Embodiment 94, 4-(6-(6-((5-Fluoro-6-methoxypyridin-3-yl)methyl)-3,6-diazabicyclo[3.1.1]heptan-3-yl)pyridin-3-yl)-6-(3-hydroxy-3-methylbut-1-yn-1-yl)pyrazolo[1,5-a]pyridine-3-carbonitrile] | – | – | – | Tumor inhibition rate TGI d 22 (TT xenograft tumor; 30 mg/kg): 99.64%; Tumor volume (mm^3, mean ± SEM) d 22 (TT xenograft tumor; 30 mg/kg): 203.56 ± 31.74 mm^3; Tumor volume (mm^3, mean ± SEM) d 0 (TT xenograft tumor; 30 mg/kg): 199.73 ± 24.07 mm^3
8 | COc1ccc(CN2C3CC2CN(c2ccc(-c4cc(OCC56CC(C#N)(C5)C6)cn5ncc(C#N)c45)cn2)C3)cn1 [Embodiment 138, 6-((3-Cyanobicyclo[1.1.1]pentan-1-yl)methoxy)-4-(6-(6-((6-methoxypyridin-3-yl)methyl)-3,6-diazabicyclo[3.1.1]heptan-3-yl)pyridin-3-yl)pyrazolo[1,5-a]pyridine-3-carbonitrile] | – | – | – | IC50 ([3]; 72 hours): 25.1 nM
9 | CC(C)(O)COc1cc(-c2ccc(N3CCC(N)(C(=O)N4CCc5ccccc54)CC3)nc2)c2c(C#N)cnn2c1 [Embodiment 62, 4-(6-(4-Amino-4-(indoline-1-carbonyl)piperidin-1-yl)pyridin-3-yl)-6-(2-hydroxy-2-methylpropoxy)pyrazolo[1,5-a]pyridine-3-carbonitrile] | 17 nM | 14 | 1.3 nM | –
10 | Cc1ccc(F)cc1C(=O)NC1(C)CC2CN(c3ccc(-c4cc(OCC(C)(C)O)cn5ncc(C#N)c45)cn3)CC2C1 (stereo not drawn) [Embodiment 75, N-(2-(5-(3-cyano-6-(2-hydroxy-2-methylpropoxy)pyrazolo[1,5-a]pyridin-4-yl)pyridin-2-yl)-5-methyloctahydrocyclopenta[c]pyrrol-5-yl)-5-fluoro-2-methylbenzamide] | 124 nM | 35 | 3.6 nM | –
11 | C#C[C@](C)(O)COc1cc(-c2ccc(N3CC4CC(C3)N4Cc3ccc(OC)nc3)nc2)c2c(C#N)cnn2c1 [Embodiment 153, 6-(((S)-2-hydroxy-2-methylbut-3-yn-1-yl)oxy)-4-(6-(6-((6-methoxypyridin-3-yl)methyl)-3,6-diazabicyclo[3.1.1]heptan-3-yl)pyridin-3-yl)pyrazolo[1,5-a]pyridine-3-carbonitrile] | – | – | – | inhibition of ERK phosphorylation ([1]; 11.1 nM, 2 hours at 37° C., TT cells): inhibit half of the ERK phosphorylation level; inhibition of the phosphorylation level of ERK in TT cells, overall [1]: significantly inhibit

Reference: patent US20260042759A1, “INHIBITOR CONTAINING BICYCLIC DERIVATIVE, PREPARATION METHOD THEREFOR AND USE THEREOF” (SHANGHAI HANSOH BIOMEDICAL CO., LTD., priority 2019, published 2026)
